Test results taken from patent publication US6673814B2, “Delivery systems and methods for noscapine and noscapine derivatives, useful as anticancer agents” (Emory University, priority 1997, dated 2004).

Experiments:
[1] = system: HL-60 cells; assay: Apoptosis of HL-60 cells, DAPI staining of nuclear chromatin; assay type: cell-based; details: for Apoptic Cell Percentage: 24 hours
Experimental: Morphological changes in the nuclear chromatin of HL-60 cells undergoing apoptosis were detected by staining with 4′, 6-diamidino-2-phenylindole (DAPI). In brief, 0.5×10^6 to 3×10^6 cells were fixed with 4% glutaraledehyde, 0.2% Triton x-100, in PBS and incubated at room temperature for 10 min., then centrifuged at 1000×9 for 10 min., resuspended in 20 μ1 0.1% DAPI ethanol. Following 15 min. incubation at room temperature, at 10 μl aliquot was placed on a glass slide, and 400 cells per slide were scored for the incidence of apoptotic chromatin changes with a fluorescence microscope.

[2] = system: solid lymphoid tumors; assay: Apoptosis in solid lymphoid tumors induced in mice, Haemotoxline and Eosine staining; assay type: in vivo; details: noscapine treated mice, microscopic examination
[3] = system: E.G7-OVA cells; assay: Inhibition of tumor growth, E.G7-OVA tumors in C57BL/6 mice; assay type: in vivo; details: 3 mg noscapine every day for three weeks, intraperitoneally or intragastric; vs saline
Experimental: C57BL/6 mice were injected subcutaneously in the right flank with 2×10^6 E.G7-OVA cells. Three days later, mice were injected intraperitoneally, every day for three weeks, either with 200 μl saline (n=10), or with 3 mg noscapine dissolved in 200 μl saline (n=10),. Third group of mice (n=10) was fed 3 mg noscapine via intragastric (i.g.) intubation using a 1 ml syringe fitted with a 20 gauge stainless steel ball point needle. After three weeks, all mice were sacrificed by cervical dislocation. Tumors were removed and weighted. Tumor weights were individually plotted and comparisons between control and treatment groups were analyzed by the Student's test.

[4] = system: bovine brain tubulin; assay: Microtubule assembly, turbidity at 350 nm; assay type: biochemical; details: 20 μM noscapine, 37° C., G-PEM buffer
Experimental: (§1) Phosphocellulose purified bovine brain tubulin was employed throughout these biophysical experiments. Fluorescence titration for determining binding constants was performed according to Peyrot, V. et al., Biochemistry 31, 11125 (1992). In brief; at room temperature, 2 μM tubulin in 100 mM PIPES, 2 mM EGTA, 1 mM MgCl2 was excited at 278 nm, and the fluorescence emission spectra were recorded with bandwidths 2 nm. […] The concentration of noscapine was raised in increments of 0.5 μM, until the decrease in the fluorescence intensity was saturated. The value of the dissociation constant and the number of sites were obtained from Scatchard plots using the equation, […], where r is the ratio of the concentration of bound ligand to the total protein concentration and n is the number of binding sites. Circular dichroism (CD) spectra measurements were performed in a spectroscometer, in cells (0.1 cm path) at 25° C. Microtubule assembly was recorded on a spectrophotometer with thermocontroler. The cuvettes (0.4 cm path) containing 100 mM PIPES, 2 mM EGTA, 1 mM MgCl2 and 1 mM GTP (G-PEM buffer), and 20 μM noscapine/DMSO were kept at room temperature before addition of tubulin and shifting to 37° C. […] The assembly was monitored by measuring the changes in turbidity at 0.5 min. intervals. Noscapine was dissolved in DMSO at 0.8 mM and stocked at 4° C. […]

[5] = system: tumors derived from malignant melanoma cells; assay: Melanoma tumor progression in animals; assay type: in vivo
[6] = system: Hela cells; assay: M phase arrest, alpha-tubulin immunofluorescence and flow cytometry, Hela cells; assay type: cell-based; details: 20 μM noscapine, 24 hr
Experimental: (§2) Hela cells were grown in DMEM supplemented with 10% fetal calf serum, 1 mM L-glutamine and 1% penicillin/streptomycin. The tumor cell line E-G7-OV A […] [Moore, M. W., et al., Cell. 54, 777 (1988)] was grown in RPM1 1640 with 10% fetal calf serum, 1% sodium pyruvate, 1 mM L-glutamine, 0.1% gentamycin, 50 μtM β-mercaptoethanol. Cells were grown at 37° C. in a 5% CO2 atmosphere. Cell viability was assessed by trypan blue exclusion analysis. Cell numbers were determined using a hemacytometer, C57BL/6 […] mice, 8 to 12 weeks of age, were obtained from Harian Sprague Dawley, Inc. (Indiananapolis, Ind.). Mice were maintained on standard laboratory chow and water ad libitum, in a temperature and light controlled environment. For immunofluorescence, both Hela and thymocyte cells were treated identically except the Hela cells were grown onto glass coverslips while EL4 thymocytes were put on glass coverslips after fixation. […]
(§3) Then cells were washed with 1% BSA-PBS solution for 10 min. at room temperature before incubating with a 1:200 dilution of a rhodamine labeled goat anti-mouse IgG antibody at room temperature for 45 min., then the coverslips were rinsed by 1% BSA/PBS solution for 10 min. and labeled by DAPI (4′, 6-diamino-2-phenyliudole) for another 10 min. at room temperature. […] Cells were examined with a fluorescence microscope. […] The samples were read on a cytometer.

[7] = biological target: bovine brain tubulin; assay: Tubulin binding by fluorescence titration, Scatchard plot
Experimental: as §1

[8] = system: thymocyte cells; assay: M phase arrest, alpha-tubulin immunofluorescence and flow cytometry, thymocyte cells; assay type: cell-based; details: 20 μM noscapine, 24 hr
Experimental: as §2, §3

[9] = system: lymphocyte cells; assay: Apoptosis initiation: oligonucleosomal DNA fragmentation, DAPI staining, nick end labeling; assay type: cell-based; details: noscapine treatment 0 to 24 hr
Experimental: Oligonucleosomal fragmentation of genomic DNA was determined according to Walton, M. I. et. al., Cancer. Res. 53, 1853 (1993). An aliquot of 3.3×10^6 cells in 10 ml medium was incubated with […] for different time periods ranging from 0 to 24 hr. At the end of incubation, cells were pelleted and washed twice with ice-cold PBS, and lysed in 250 μl 1% (v/v) NP-40 detergent containing 0.5 mg/ml proteinase K in PBS solution on ice for 60 min. Samples were centrifuged, and the supernatants were removed and incubated with 5 μl 10 mg/ml Rnase A at 37° C. for 40 min. An aliquot of 1 ml anhydrous ethanol was added, tubes were placed at −20° C. for 20 min., then centrifuged to pellet DNA. […]
Morphological changes in the nuclear chromatin of cells undergoing apoptosis were detected by staining with 4′, 6-diamidino-2-phenylindole (DAPI). […] Following 15 min. incubation at room temperature, a 10 μl aliquot was placed on a glass slide, and 400 cells per slide were scored for the incidence of apoptotic chromatin changes with a fluorescence microscope. […]
After the slides were rinsed with PBS, 50 μl converter-POD solution was added on samples and incubated for 30 min. at 37° C. […] After the slides were rinsed with PBS for another 3 times, coverslips were mounted and analyzed with a light microscope.

| Compound | initiation of apoptosis [1] | Apoptic Cell Percentage ([1]; 20 μM in DMSO, first trial) | Apoptic Cell Percentage ([1]; 20 μM in DMSO, second trial) | Apoptic Cell Percentage ([1]; 50 μM in DMSO) | apoptotic morphologies of tumor cells [2] | tumor weight [3] | tubulin assembly (absorbance at 350 nm) [4] | reduction of tumor volume compared to untreated animals [5] | M phase arrest of microtubule arrays [6] | Kd ([7]; 2 μM tubulin, room temperature, Scatchard plot, read-out: apparent dissociation constant (Kd)) | fluorescence quenching of tubulin ([7]; excitation 278 nm) | M phase arrest of microtubule arrays [8] | DNA degradation (gel electrophoresis of fragmented genomic DNA, staining of treated cells) [9] |
| --- | --- | --- | --- | --- | --- | --- | --- | --- | --- | --- | --- | --- | --- |
| 1,3-dihydro-4,5-dimethoxy-1-[1-(8-methoxy-2-methyl-6,7-methylenedioxy-1,2,3,4-tetrahydroisoquinolinyl)] isobenzofuran-BH3 [Compound 3] | initiate apoptosis | 37% | 28% | 39% | – | – | – | – | – | – | – | – | – |
| COc1ccc2c(c1OC)CO[C@@H]2[C@H]1c2c(cc3c(c2OC)OCO3)CCN1C [Compound 4, 1,3-diliydro-4,5-dimethoxy-1-[1-(8-methoxy-2-methyl-6,7-methylenedioxy 1,2,3,4-tetrahydroixoquinolinyl)]isobenzofuran] | initiate apoptosis | 48% | 32% | 52% | – | – | – | – | – | – | – | – | – |
| COc1ccc2c(c1OC)C(=O)O[C@@H]2[C@H]1c2c(cc3c(c2OC)OCO3)CCN1C [Noscapine] | initiate apoptosis | 30% | 17% | 27% | many cells in noscapine treated mice with apoptotic morphologies | significantly reduced tumor weight | promotes tubulin assembly | ~83% | microtubule arrays are arrested in M phase | 1.86 µM | affords fluorescence quenching of tubulin | microtubule arrays are arrested in M phase | progressive DNA degradation with increasing time |
